Holding throughout (assay): Kinase panel enzymatic inhibition assay (Nanosyn)
What all share (format): biochemical

The target of assay [1] is T1, MER (Homo sapiens, UniProt Q12866).
T1 construct: Nanosyn (contract laboratory that ran the panel)
T1 sequence (Q12866 21-999): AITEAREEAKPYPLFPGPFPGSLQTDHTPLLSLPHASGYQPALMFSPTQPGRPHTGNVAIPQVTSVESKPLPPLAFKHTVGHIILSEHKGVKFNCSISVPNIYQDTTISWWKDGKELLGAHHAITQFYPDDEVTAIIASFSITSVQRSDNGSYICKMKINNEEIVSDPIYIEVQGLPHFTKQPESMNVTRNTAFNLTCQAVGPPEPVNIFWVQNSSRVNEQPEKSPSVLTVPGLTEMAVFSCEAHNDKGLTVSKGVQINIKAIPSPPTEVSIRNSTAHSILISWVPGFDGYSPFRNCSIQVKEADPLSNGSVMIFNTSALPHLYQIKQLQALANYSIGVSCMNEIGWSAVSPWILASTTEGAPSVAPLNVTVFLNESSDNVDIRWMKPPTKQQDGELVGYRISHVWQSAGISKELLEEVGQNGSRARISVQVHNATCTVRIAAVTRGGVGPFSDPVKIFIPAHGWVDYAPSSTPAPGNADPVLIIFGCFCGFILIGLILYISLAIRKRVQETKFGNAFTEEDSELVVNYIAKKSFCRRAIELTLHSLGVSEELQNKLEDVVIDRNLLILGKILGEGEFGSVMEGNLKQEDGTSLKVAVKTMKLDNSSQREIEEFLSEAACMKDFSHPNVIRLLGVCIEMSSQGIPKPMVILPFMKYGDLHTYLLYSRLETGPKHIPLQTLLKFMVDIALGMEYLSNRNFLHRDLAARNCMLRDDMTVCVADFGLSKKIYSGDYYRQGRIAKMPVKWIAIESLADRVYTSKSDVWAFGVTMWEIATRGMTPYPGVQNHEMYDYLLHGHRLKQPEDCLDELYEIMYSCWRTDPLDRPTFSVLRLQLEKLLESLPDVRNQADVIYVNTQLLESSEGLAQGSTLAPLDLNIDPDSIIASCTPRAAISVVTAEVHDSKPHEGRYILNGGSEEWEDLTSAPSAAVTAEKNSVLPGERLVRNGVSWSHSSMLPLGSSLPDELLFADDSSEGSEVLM
The settings on record: ATP at Km; 30-minute pre-incubation; read-out: kinase inhibition in terms of IC50, MER. The procedure, abridged: (§1)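 Read-out is percent inhibition or IC50, obtained by mobility shift, ADP detection or time-resolved fluorescence detection. Each kinase was run with ATP at its Km, and compound at 5 μM was pre-incubated for 30 minutes.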

The target of assay [2] is T2, SYK (Homo sapiens, UniProt P43405).
T2 construct: purchased Nanosyn
The settings on record: ATP at Km; 30-minute pre-incubation; read-out: kinase inhibition in terms of IC50, SYK. The procedure, abridged:
as §1

Assay [3] has as its target T3, JAK3 (Homo sapiens, UniProt P52333).
T3 construct: Nanosyn (contract laboratory that ran the panel)
T3 sequence (P52333 1-1124): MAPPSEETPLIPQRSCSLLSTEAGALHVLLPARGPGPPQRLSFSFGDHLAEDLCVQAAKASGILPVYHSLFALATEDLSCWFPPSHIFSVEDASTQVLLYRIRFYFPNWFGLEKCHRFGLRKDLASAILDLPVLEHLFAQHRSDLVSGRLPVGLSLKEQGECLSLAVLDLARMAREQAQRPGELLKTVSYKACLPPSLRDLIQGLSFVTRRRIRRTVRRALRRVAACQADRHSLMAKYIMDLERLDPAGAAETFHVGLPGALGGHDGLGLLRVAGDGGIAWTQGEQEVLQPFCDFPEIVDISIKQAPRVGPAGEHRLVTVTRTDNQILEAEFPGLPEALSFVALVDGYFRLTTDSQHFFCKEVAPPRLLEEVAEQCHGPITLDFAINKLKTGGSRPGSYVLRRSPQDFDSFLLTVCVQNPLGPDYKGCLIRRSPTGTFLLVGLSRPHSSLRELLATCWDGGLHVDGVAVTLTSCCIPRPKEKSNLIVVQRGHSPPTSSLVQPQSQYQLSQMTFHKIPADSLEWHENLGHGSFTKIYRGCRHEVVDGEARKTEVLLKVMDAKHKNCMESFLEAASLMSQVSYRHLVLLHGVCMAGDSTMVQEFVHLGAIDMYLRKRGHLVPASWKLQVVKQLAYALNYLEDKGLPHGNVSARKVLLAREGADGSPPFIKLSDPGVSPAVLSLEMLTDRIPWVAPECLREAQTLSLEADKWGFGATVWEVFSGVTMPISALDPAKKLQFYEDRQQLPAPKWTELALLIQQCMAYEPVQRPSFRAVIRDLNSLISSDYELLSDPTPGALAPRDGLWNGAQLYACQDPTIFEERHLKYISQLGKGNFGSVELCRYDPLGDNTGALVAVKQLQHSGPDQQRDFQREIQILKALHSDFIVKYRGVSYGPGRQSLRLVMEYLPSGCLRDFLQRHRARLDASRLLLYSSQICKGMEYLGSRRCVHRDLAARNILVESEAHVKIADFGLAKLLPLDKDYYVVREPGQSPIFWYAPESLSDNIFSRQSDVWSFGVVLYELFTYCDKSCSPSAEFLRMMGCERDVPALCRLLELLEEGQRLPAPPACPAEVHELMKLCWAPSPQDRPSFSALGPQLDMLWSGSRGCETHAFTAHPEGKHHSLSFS
The settings on record: ATP at Km; 30-minute pre-incubation; read-out: kinase inhibition in terms of IC50, JAK3. The procedure, abridged:
as §1

Regarding `COc1cc2nccc(Oc3ccc(NC(=O)c4cc(S(C)(=O)=O)n(-c5ccc(F)cc5)n4)cc3)c2cc1OC` [Ex72, N-(4-((6,7-dimethoxyquinolin-4-yl)oxy)phenyl)-1-(4-fluorophenyl)-5-(methylsulfonyl)-1H-pyrazole-3-carboxamide], the IC50 is 0.5 to 1 µM in assay [1], 1 to 10 µM in assay [2] and no less than 10 µM in assay [3].
For `COc1cc2nccc(Oc3ccc(NC(=O)c4cc(S(C)(=O)=O)n(-c5ccc(F)cc5)n4)cc3F)c2cc1OC` [Ex73, N-(4-((6,7-dimethoxyquinolin-4-yl)oxy)-3-fluorophenyl)-1-(4-fluorophenyl)-5-(methylsulfonyl)-1H-pyrazole-3-carboxamide], in that order: less than 0.5 µM, no less than 10 µM and no less than 10 µM.
For `COc1cc2nccc(Oc3ccc(NC(=O)c4cc(S(C)(=O)=O)n(-c5ccc(F)cc5)n4)c(F)c3)c2cc1OC` [Ex71, N-(4-((6,7-dimethoxyquinolin-4-yl)oxy)-2-fluorophenyl)-1-(4-fluorophenyl)-5-(methylsulfonyl)-1H-pyrazole-3-carboxamide], the figures for the IC50 in assay [1], in assay [2] and in assay [3] were less than 0.5 µM, no less than 10 µM and no less than 10 µM, respectively.

Values taken from patent publication US20240400577A1, “MODULATORS OF PROTEIN KINASES” (VIBLIOME THERAPEUTICS, LLC, priority 2021, published 2024).
